Measurements: patent publication US10167302B2, “Phosphonate nucleosides useful in the treatment of viral diseases” (University College Cork, priority 2014, dated 2019)
Where two headings read alike, the source gives them in different places.

Assays:
HIV-1 RT = biological target: T1, HIV-1 RT (Human immunodeficiency virus type 1 group M subtype B, UniProt P04585); experiment: HIV-1 RT assay in the presence of artificial template/primer; type: biochemical
T1 construct: HIV-1 RT Assays in the Presence of Artificial Template/Primer
Procedure: HIV-1 RT Assays in the Presence of Artificial Template/Primer
To prepare the template/primers for the RT experiments, 0.15 mM poly(U), poly(A), and poly(I) were mixed with an equal volume of 0.0375 mM oligo(dA), oligo(dT), and oligo(dC), respectively. The final concentrations of the templates in the RT reaction mixture were 0.015 mM. The reaction mixture (50 μl) contained 50 mM Tris.HCl (pH 7.8), 5 mM dithiothreitol, 300 mM glutathione, 500 μM EDTA, 150 mM KCl, 5 mM MgCl2, 1.25 μg of bovine serum albumin, an appropriate concentration of labeled (tritiated) substrate dTTP, dCTP, or dATP (2 μCi/assay), a fixed concentration of the template/primer poly(A).oligo(dT) (0.015 mM), poly(I).oligo(dC) (0.015 mM), and poly(U).oligo(dA) (0.015 mM), 0.06% Triton X-100, 10 μl of inhibitor solution (containing various concentrations of the compounds), and 1 μl of the RT preparation. The reaction mixtures were incubated at 37° C. for 30 min, at which time 100 μl of yeast RNA (1 mg/ml) and 1 ml of Na4P2O7 (0.02 M) in trichloroacetic acid (5% v/v) were added. The solutions were kept on ice for 30 min, after which the acid-insoluble material was washed and analyzed for radioactivity.

HSV-1 DNA pol = HSV-1 DNA pol (Human herpesvirus 1, UniProt P04293); experiment: HSV-1 DNA polymerase activity, calf thymus DNA as template primer; type: biochemical; details: [3H]dTTP incorporation, all four dNTPs
Chain of HSV-1 DNA pol (P04293 whole entry): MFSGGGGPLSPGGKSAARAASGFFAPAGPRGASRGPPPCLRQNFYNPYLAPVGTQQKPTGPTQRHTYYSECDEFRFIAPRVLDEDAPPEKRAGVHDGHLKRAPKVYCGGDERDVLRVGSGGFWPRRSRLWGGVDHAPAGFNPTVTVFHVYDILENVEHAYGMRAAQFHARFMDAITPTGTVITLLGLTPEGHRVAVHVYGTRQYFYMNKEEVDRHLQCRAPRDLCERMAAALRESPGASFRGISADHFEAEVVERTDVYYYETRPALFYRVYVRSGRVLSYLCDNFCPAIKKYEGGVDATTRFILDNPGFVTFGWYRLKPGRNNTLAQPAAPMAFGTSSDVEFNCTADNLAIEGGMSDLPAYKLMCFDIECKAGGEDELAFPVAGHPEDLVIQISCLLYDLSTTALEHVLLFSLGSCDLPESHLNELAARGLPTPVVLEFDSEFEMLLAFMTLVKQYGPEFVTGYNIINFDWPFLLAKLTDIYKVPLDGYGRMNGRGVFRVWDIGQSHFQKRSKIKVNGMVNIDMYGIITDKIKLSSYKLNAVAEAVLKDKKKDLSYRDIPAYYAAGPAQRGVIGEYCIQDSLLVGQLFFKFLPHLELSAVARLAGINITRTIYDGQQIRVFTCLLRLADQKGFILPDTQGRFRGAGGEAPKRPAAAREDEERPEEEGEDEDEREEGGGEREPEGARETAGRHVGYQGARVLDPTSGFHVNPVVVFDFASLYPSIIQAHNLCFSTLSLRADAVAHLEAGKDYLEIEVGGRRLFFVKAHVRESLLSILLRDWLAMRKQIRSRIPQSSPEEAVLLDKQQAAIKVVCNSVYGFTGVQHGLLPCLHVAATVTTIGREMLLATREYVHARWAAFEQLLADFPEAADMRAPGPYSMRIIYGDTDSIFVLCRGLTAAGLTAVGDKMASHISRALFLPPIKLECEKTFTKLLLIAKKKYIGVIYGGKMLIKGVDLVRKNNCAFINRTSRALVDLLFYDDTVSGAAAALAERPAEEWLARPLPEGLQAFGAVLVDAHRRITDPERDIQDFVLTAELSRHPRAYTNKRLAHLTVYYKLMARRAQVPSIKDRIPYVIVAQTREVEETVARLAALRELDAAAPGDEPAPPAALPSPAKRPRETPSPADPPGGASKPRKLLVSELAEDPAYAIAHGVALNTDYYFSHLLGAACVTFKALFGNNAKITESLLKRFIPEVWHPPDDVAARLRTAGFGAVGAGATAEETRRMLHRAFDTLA
Procedure: (§1) The HCMV and HSV-1 DNA polymerase activity was measured in the presence of calf thymus DNA as template primer, and all four dNTPs as the nucleotide substrates of which dTTP was tritiated.

HCMV DNA pol = HCMV DNA pol (Human cytomegalovirus, UniProt P08546); experiment: HCMV DNA polymerase activity, calf thymus DNA as template primer; type: biochemical; details: [3H]dTTP incorporation, all four dNTPs
Chain of HCMV DNA pol (P08546 whole entry): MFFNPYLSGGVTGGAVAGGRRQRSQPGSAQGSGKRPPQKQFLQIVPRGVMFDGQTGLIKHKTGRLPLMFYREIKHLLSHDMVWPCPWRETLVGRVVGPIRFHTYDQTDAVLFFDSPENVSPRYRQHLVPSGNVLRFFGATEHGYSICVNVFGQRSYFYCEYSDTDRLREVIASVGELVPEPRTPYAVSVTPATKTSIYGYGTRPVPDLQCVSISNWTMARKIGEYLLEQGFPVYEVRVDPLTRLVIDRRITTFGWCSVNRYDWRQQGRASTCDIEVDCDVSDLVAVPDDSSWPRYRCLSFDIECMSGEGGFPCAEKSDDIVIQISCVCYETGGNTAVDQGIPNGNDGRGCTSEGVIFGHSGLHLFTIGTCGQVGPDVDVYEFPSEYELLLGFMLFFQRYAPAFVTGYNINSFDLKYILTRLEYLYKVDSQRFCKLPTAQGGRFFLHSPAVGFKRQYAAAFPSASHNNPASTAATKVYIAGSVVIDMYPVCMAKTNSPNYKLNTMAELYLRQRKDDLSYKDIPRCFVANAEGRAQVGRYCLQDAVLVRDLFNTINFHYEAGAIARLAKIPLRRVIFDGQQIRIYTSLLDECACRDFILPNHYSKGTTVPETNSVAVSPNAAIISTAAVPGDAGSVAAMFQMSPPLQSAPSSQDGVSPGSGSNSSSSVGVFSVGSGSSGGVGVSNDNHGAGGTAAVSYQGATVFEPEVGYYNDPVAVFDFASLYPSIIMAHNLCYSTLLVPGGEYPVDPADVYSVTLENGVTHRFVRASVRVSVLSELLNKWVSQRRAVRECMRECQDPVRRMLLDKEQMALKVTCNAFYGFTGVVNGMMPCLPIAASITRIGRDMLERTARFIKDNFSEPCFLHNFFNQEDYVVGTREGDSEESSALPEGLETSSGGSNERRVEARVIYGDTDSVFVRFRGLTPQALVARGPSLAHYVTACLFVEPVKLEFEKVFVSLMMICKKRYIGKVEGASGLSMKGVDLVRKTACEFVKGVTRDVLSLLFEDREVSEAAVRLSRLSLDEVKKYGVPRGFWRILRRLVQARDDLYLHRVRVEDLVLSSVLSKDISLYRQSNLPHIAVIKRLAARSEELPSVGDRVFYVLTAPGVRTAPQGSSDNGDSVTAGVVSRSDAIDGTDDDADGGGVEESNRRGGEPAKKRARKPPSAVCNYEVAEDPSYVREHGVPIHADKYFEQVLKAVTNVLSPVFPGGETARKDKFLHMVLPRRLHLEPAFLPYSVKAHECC
Procedure: as §1

[1] = values marked *: in poly rA.dT/dTTP RT assay, read-out: IC50 HIV-1 RT

melting point | Structure (SMILES) | IC50 (HIV-1 RT) | IC50 (HSV-1 DNA pol) | IC50 (HCMV DNA pol) | IC50 (HIV-1 RT; [1])
 | Cc1cn(C[C@H]2C[C@H]2COC(C(=O)O)P(=O)(O)O)c(=O)[nH]c1=O (stereo partly drawn) [Compound 13c] | 440 ± 85 µM | 35 µM | 4.6 ± 0.2 µM | 
 | Cc1cn(CC(C)OC(C(=O)O)P(=O)(O)O)c(=O)[nH]c1=O (stereo not drawn) [Compound 8b, 2-((1-(5-Methyl-2,4-dioxo-3,4-dihydropyrimidin-1(2H)-yl)propan-2-yl)oxy)-2-phosphonoacetic acid] | 18 µM | 12 µM | 111 ± 24 µM | 
 | Nc1ccn(C/C=C\COC(C(=O)O)P(=O)(O)O)c(=O)n1 (stereo not drawn) [Compound 13o, 2-Cis-(4-(4-amino-2-oxopyrimidin-1(2H)-yl)but-2-enyloxy)-2-phosphonoacetic acid] |  |  |  | 246 µM
 | Cc1cn(C[C@H]2C3C=CC(C3)[C@H]2COC(C(=O)O)P(=O)(O)O)c(=O)[nH]c1=O (stereo partly drawn) [Compound 13f] | 340 ± 139 µM | 32 µM | 14 ± 2 µM | 
199 to 201 °C | Cc1cn(C[C@@H](O)[C@@H](O)COC(C(=O)O)P(=O)(O)O)c(=O)[nH]c1=O (stereo partly drawn) [JJ-379] |  |  |  | 
 | Cc1cn(C/C=C\COC(C(=O)O)P(=O)(O)O)c(=O)[nH]c1=O (stereo not drawn) [Compound 13a, cis-2-(4-(2,4-Dioxo-5-methyl-pyrimidin-1-yl)but-2-enyloxy)-2-phosphonoacetic acid] | 235 ± 16 µM | 20 µM | 2.1 ± 0.6 µM | 
 | Cc1cn(CCOC(C(=O)O)P(=O)(O)O)c(=O)[nH]c1=O (stereo not drawn) [Compound 8a, 2-(2-(5-Methyl-2,4-dioxo-3,4-dihydropyrimidin-1(2H)-yl)ethoxy)-2-phosphonoacetic acid] | 17 µM | 19 µM | 161 ± 8 µM | 
189 to 191 °C | Cc1cn(Cc2cn(CCOC(C(=O)O)P(=O)(O)O)nn2)c(=O)[nH]c1=O (stereo not drawn) [JJ-210, 2-(2-(4-((5-methyl-2,4-dioxo-3,4-dihydropyrimidin-1(2H)-yl)methyl)-1H-1,2,3-triazol-1-yl)ethoxy)-2-phosphonoacetic acid] |  |  |  | 
 | Cc1cn(CCCCOC(C(=O)O)P(=O)(O)O)c(=O)[nH]c1=O (stereo not drawn) [Compound 13h, 2-(4-(2,4-Dioxo-5-methyl-pyrimidin-1-yl)butyloxy)-2-phosphonoacetic acid] | 145 ± 106 µM | 56 µM | 29 ± 3 µM | 
 | O=C(O)C(OC/C=C\Cn1cc(F)c(=O)[nH]c1=O)P(=O)(O)O (stereo not drawn) [Compound 13k, 2-Cis-(4-(5-fluoro-2,4-dioxo-3,4-dihydropyrimidin-1(2H)-yl)but-2-enyloxy)-2-phosphonoacetic acid] |  |  |  | > 500 µM
 | Cc1cn(C(C)COC(C(=O)O)P(=O)(O)O)c(=O)[nH]c1=O (stereo not drawn) [Compound 8c, 2-(2-(5-Methyl-2,4-dioxo-3,4-dihydropyrimidin-1(2H)-yl)propoxy)-2-phosphonoacetic acid] | 133 ± 16 µM | 16 µM | > 200 µM | 
 | O=C(O)C(OCCCCn1cc(F)c(=O)[nH]c1=O)P(=O)(O)O (stereo not drawn) [Compound 13l, 2-(4-(5-fluoro-2,4-dioxo-3,4-dihydropyrimidin-1(2H)-yl)butoxy)-2-phosphonoacetic acid] |  |  |  | 214 µM
 | Cc1cn(C[C@H]2CCCC[C@H]2COC(C(=O)O)P(=O)(O)O)c(=O)[nH]c1=O (stereo partly drawn) [Compound 13i] | ≥ 500 µM | 13 µM | 4 µM | 
 | Cc1cn(Cc2ccccc2COC(C(=O)O)P(=O)(O)O)c(=O)[nH]c1=O (stereo not drawn) [Compound 13g, 2-(2-((2,4-Dioxo-5-methyl-pyrimidin-1-yl)methyl)benzyloxy)-2-phosphonoacetic acid] | 131 ± 86 µM | 11 µM | 13 ± 4 µM | 
 | COC(=O)C(OC[C@@H]1CCCC[C@@H]1Cn1cc(C)c(=O)[nH]c1=O)P(=O)(O)O (stereo partly drawn) [Compound 13j] | ≥ 500 µM | 43 µM | 16 ± 3 µM | 
 | Nc1nc(Cl)c2ncn(C/C=C\COC(C(=O)O)P(=O)(O)O)c2n1 (stereo not drawn) [Compound 13n, 2-Cis-(4-(2-amino-6-chloro-9H-purin-9-yl)but-2-enyloxy)-2-phosphonoacetic acid] |  |  |  | ≥ 500 µM
 | Cc1cn(CC#CCOC(C(=O)O)P(=O)(O)O)c(=O)[nH]c1=O (stereo not drawn) [Compound 13b, 2-(4-(2,4-Dioxo-5-methyl-pyrimidin-1-yl)but-2-ynyloxy)-2-phosphonoacetic acid] | > 500 µM |  | > 500 µM | 
 | Cc1cn(C[C@H]2CC=CC[C@H]2COC(C(=O)O)P(=O)(O)O)c(=O)[nH]c1=O (stereo partly drawn) [Compound 13e] | 425 ± 106 µM | 16 µM | 3 ± 0.5 µM | 
 | Nc1ncnc2c1ncn2C/C=C\COC(C(=O)O)P(=O)(O)O (stereo not drawn) [Compound 13m, 2-Cis-(4-(6-amino-9H-purin-9-yl)but-2-enyloxy)-2-phosphonoacetic acid] |  |  |  | 426 µM
 | Cc1cn(C[C@H]2CCC[C@H]2COC(C(=O)O)P(=O)(O)O)c(=O)[nH]c1=O (stereo partly drawn) [Compound 13d] | ≥ 500 µM | 34 µM | 40 ± 25 µM | 
